Where two headings read alike, the source gives them in different places.
Assays:
[1] = system: B16 melanoma; type: in vivo, female BDF1 mice
[2] = system: MT-1 breast cancer xenograft; assay: MT-1 breast cancer xenograft, second experiment: BT on day 3 only; type: in vivo, male nude mice
Protocol: In the second experiment with MT-1 breast cancer, BT was administered on day three only, at doses of […] to 3 micrograms/kg. The T/C ratio of treated vs. control median RTV was measured on day 28. […] The other doses of BT (30 ng, 3 ng, 0.3 ng, and 0.03 ng) alone were not effective in this experiment. These observations of RTV were made only through day 28.

[3] = system: MT-1 breast cancer xenograft; assay: MT-1 breast cancer xenograft: BT by intratumor injection; type: in vivo, male nude mice; parameters: Median RTV: unit not given here; settings: for Median RTV: BT 30 ng intratumor
Protocol: In a parallel experiment, a low dose of 30 ng of BT was injected directly into the tumor on days 3, 17 and 31. The T/C for RTV measured on day 35 was 50%.

[4] = system: MT-1 breast cancer xenograft
[5] = system: MOPC-315 myeloma; assay: MOPC-315 Myeloma study #1: β-alethine ip day 2 (1 × 10^6 tumor cells)
[6] = system: MOPC-315 myeloma; assay: MOPC-315 Myeloma study #3: β-alethine ip day 0 (3 × 10^5 tumor cells); settings: for Animals Surviving: BT 100 ng/kg

NCCC(=O)NCCSSCCNC(=O)CCN [BT, β-alethine] was tested, and the “Primary Tumor Size (Median RTV)” value ([1]; BT 30 pg/kg alone, day 0) was 1, the “Primary Tumor Size (Median RTV)” value ([1]; BT 30 pg/kg alone, day 4) was 1.0 and the “Primary Tumor Size (Median RTV)” value ([1]; BT 30 pg/kg alone, day 7) was 1.8. The “Primary Tumor Size (Median RTV)” value ([1]; BT 30 pg/kg alone, day 10) was 6.0, the “Primary Tumor Size (Median RTV)” value ([1]; BT 30 pg/kg alone, day 14) was 17.3 and the “Primary Tumor Size (Median RTV)” value ([1]; BT 30 pg/kg alone, day 17) was 62.0. For the same compound, the “Primary Tumor Size (Median RTV)” value ([1]; BT 30 ng/kg alone, day 0) was 1, the “Primary Tumor Size (Median RTV)” value ([1]; BT 30 ng/kg alone, day 4) was 1.0 and the “Primary Tumor Size (Median RTV)” value ([1]; BT 30 ng/kg alone, day 7) was 3.1. The “Primary Tumor Size (Median RTV)” value ([1]; BT 30 ng/kg alone, day 10) was 8.1, the “Primary Tumor Size (Median RTV)” value ([1]; BT 30 ng/kg alone, day 14) was 15.7 and the “Primary Tumor Size (Median RTV)” value ([1]; BT 30 ng/kg alone, day 17) was 32.4. The “Primary Tumor Size (Median RTV)” value ([1]; BT 30 ug/kg alone, day 0) was 1, the “Primary Tumor Size (Median RTV)” value ([1]; BT 30 ug/kg alone, day 4) was 1.0 and the “Primary Tumor Size (Median RTV)” value ([1]; BT 30 ug/kg alone, day 7) was 1.3. The “Primary Tumor Size (Median RTV)” value ([1]; BT 30 ug/kg alone, day 10) was 5.5, the “Primary Tumor Size (Median RTV)” value ([1]; BT 30 ug/kg alone, day 14) was 16.6 and the “Primary Tumor Size (Median RTV)” value ([1]; BT 30 ug/kg alone, day 17) was 30.4. For the same compound, the “Primary Tumor Size (Median RTV)” value ([1]; BT 30 mg/kg alone, day 0) was 1, the “Primary Tumor Size (Median RTV)” value ([1]; BT 30 mg/kg alone, day 4) was 1.7 and the “Primary Tumor Size (Median RTV)” value ([1]; BT 30 mg/kg alone, day 7) was 3.3. For the same compound, the “Primary Tumor Size (Median RTV)” value ([1]; BT 30 mg/kg alone, day 10) was 7.5, the “Primary Tumor Size (Median RTV)” value ([1]; BT 30 mg/kg alone, day 14) was 23.2 and the “Primary Tumor Size (Median RTV)” value ([1]; BT 30 mg/kg alone, day 17) was 34.8. For the same compound, the “Primary Tumor Size (Median RTV)” value ([1]; BT 30 fg/kg alone, day 0) was 1, the “Primary Tumor Size (Median RTV)” value ([1]; BT 30 fg/kg alone, day 4) was 1.7 and the “Primary Tumor Size (Median RTV)” value ([1]; BT 30 fg/kg alone, day 7) was 2.4. The “Primary Tumor Size (Median RTV)” value ([1]; BT 30 fg/kg alone, day 10) was 7.0, the “Primary Tumor Size (Median RTV)” value ([1]; BT 30 fg/kg alone, day 14) was 16.1 and the “Primary Tumor Size (Median RTV)” value ([1]; BT 30 fg/kg alone, day 17) was 41.6. For the same compound, the effectiveness ([2]; BT 30 ng, 3 ng, 0.3 ng, 0.03 ng alone) was “not effective”, the “T/C ratio of median RTV” value ([2]; BT 300 ng/kg day 3, day 28) was 42% and the “Median RTV” value ([2]; BT 300 ng/kg on Day 3, day 8) was 1.105. For the same compound, the “Median RTV” value ([2]; BT 300 ng/kg on Day 3, day 14) was 1.243, the “Median RTV” value ([2]; BT 300 ng/kg on Day 3, day 21) was 2.532 and the “Median RTV” value ([2]; BT 300 ng/kg on Day 3, day 28) was 3.317. For the same compound, the “T/C ratio of median RTV” value ([2]; BT 3 ug/kg day 3, day 28) was 32%, the “Median RTV” value ([2]; BT 3 ug/kg on Day 3, day 8) was 1.012 and the “Median RTV” value ([2]; BT 3 ug/kg on Day 3, day 14) was 0.955. For the same compound, the “Median RTV” value ([2]; BT 3 ug/kg on Day 3, day 21) was 1.756, the “Median RTV” value ([2]; BT 3 ug/kg on Day 3, day 28) was 2.526 and the “T/C for RTV” value ([3]; 30 ng BT into the tumor days 3, 17, 31, day 35) was 50%. The “Median RTV” value ([3]; day 8) was 1.27, the “Median RTV” value ([3]; day 11) was 1.40 and the “Median RTV” value ([3]; day 14) was 1.77. The “Median RTV” value ([3]; day 17) was 2.61, the “Median RTV” value ([3]; day 21) was 3.74 and the “Median RTV” value ([3]; day 24) was 4.34. For the same compound, the “Median RTV” value ([3]; day 28) was 4.93, the “Median RTV” value ([3]; day 31) was 6.37 and the “Median RTV” value ([3]; day 35) was 8.01. For the same compound, the “T/C RTV d 49” value ([4]; BT 30 mg/kg) was 72%, the “T/C RTV d 59” value ([4]; BT 30 mg/kg) was 165% and the effectiveness ([4]; BT 30 mg/kg alone) was “not effective”. For the same compound, the “WBC d 46” value ([4]; mouse, in vivo) was 14.4 10^6/mL, the “Animals Surviving” value ([5]; BT 3 ng/kg, day 10) was 10 and the “Animals Surviving” value ([5]; BT 3 ng/kg, day 11) was 10. The “Animals Surviving” value ([5]; BT 3 ng/kg, day 12) was 10, the “Animals Surviving” value ([5]; BT 3 ng/kg, day 13) was 9 and the “Animals Surviving” value ([5]; BT 3 ng/kg, day 14) was 8. For the same compound, the “Animals Surviving” value ([5]; BT 3 ng/kg, day 15) was 7, the “Animals Surviving” value ([5]; BT 3 ng/kg, day 16) was 6 and the “Animals Surviving” value ([5]; BT 3 ng/kg, day 17) was 4. For the same compound, the “Animals Surviving” value ([5]; BT 3 ng/kg, day 18) was 3, the “Animals Surviving” value ([5]; BT 3 ng/kg, day 19) was 3 and the “Animals Surviving” value ([5]; BT 3 ng/kg, day 20) was 2. The “Animals Surviving” value ([5]; BT 3 ng/kg, day 21) was 0, the “Animals Surviving” value ([5]; BT 100 μg/kg, day 10) was 10 and the “Animals Surviving” value ([5]; BT 100 μg/kg, day 11) was 10. The “Animals Surviving” value ([5]; BT 100 μg/kg, day 12) was 10, the “Animals Surviving” value ([5]; BT 100 μg/kg, day 13) was 10 and the “Animals Surviving” value ([5]; BT 100 μg/kg, day 14) was 7. For the same compound, the “Animals Surviving” value ([5]; BT 100 μg/kg, day 15) was 6, the “Animals Surviving” value ([5]; BT 100 μg/kg, day 16) was 6 and the “Animals Surviving” value ([5]; BT 100 μg/kg, day 17) was 5. For the same compound, the “Animals Surviving” value ([5]; BT 100 μg/kg, day 18) was 3, the “Animals Surviving” value ([5]; BT 100 μg/kg, day 19) was 3 and the “Animals Surviving” value ([5]; BT 100 μg/kg, day 20) was 1. The “Animals Surviving” value ([5]; BT 100 μg/kg, day 21) was 0, the “Animals Surviving” value ([5]; BT 3 mg/kg, day 10) was 10 and the “Animals Surviving” value ([5]; BT 3 mg/kg, day 11) was 10. The “Animals Surviving” value ([5]; BT 3 mg/kg, day 12) was 10, the “Animals Surviving” value ([5]; BT 3 mg/kg, day 13) was 10 and the “Animals Surviving” value ([5]; BT 3 mg/kg, day 14) was 7. For the same compound, the “Animals Surviving” value ([5]; BT 3 mg/kg, day 15) was 4, the “Animals Surviving” value ([5]; BT 3 mg/kg, day 16) was 4 and the “Animals Surviving” value ([5]; BT 3 mg/kg, day 17) was 3. For the same compound, the “Animals Surviving” value ([5]; BT 3 mg/kg, day 18) was 2, the “Animals Surviving” value ([5]; BT 3 mg/kg, day 19) was 2 and the “Animals Surviving” value ([5]; BT 3 mg/kg, day 20) was 1. For the same compound, the “Animals Surviving” value ([5]; BT 3 mg/kg, day 21) was 1, the “Animals Surviving” value ([5]; BT 3 mg/kg, day 22) was 1 and the “Animals Surviving” value ([5]; BT 3 mg/kg, day 23) was 1. For the same compound, the “Animals Surviving” value ([5]; BT 3 mg/kg, day 24) was 0, the “Animals Surviving” value ([5]; BT 30 fg/kg, day 10) was 10 and the “Animals Surviving” value ([5]; BT 30 fg/kg, day 11) was 10. For the same compound, the “Animals Surviving” value ([5]; BT 30 fg/kg, day 12) was 10, the “Animals Surviving” value ([5]; BT 30 fg/kg, day 13) was 8 and the “Animals Surviving” value ([5]; BT 30 fg/kg, day 14) was 5. For the same compound, the “Animals Surviving” value ([5]; BT 30 fg/kg, day 15) was 3, the “Animals Surviving” value ([5]; BT 30 fg/kg, day 16) was 3 and the “Animals Surviving” value ([5]; BT 30 fg/kg, day 17) was 3. The “Animals Surviving” value ([5]; BT 30 fg/kg, day 18) was 2, the “Animals Surviving” value ([5]; BT 30 fg/kg, day 19) was 2 and the “Animals Surviving” value ([5]; BT 30 fg/kg, day 20) was 0. The “Animals Surviving” value ([5]; BT 30 fg/kg, day 21) was 0, the “Animals Surviving” value ([6]; day 10) was 10 and the “Animals Surviving” value ([6]; day 11) was 10. For the same compound, the “Animals Surviving” value ([6]; day 12) was 10, the “Animals Surviving” value ([6]; day 13) was 10 and the “Animals Surviving” value ([6]; day 14) was 7. For the same compound, the “Animals Surviving” value ([6]; day 17) was 0 and the “survival prolonged to” value ([6]; BT 3 mg/kg, control 16 days) was 18 days.

Reference: patent US6762174B1 (priority 1998, dated 2004)
